Drawing on patent US8808706B2, “Arthrospira-based compositions and uses thereof” (Biovite Australia Pty. Ltd., priority 2004, dated 2014), this text covers regrowth into clearance for one compound.

The assay has as its system Trichophyton mentagrophytes. Briefly: Inhibitory test, filter paper disc on newly inoculated plate. It is filed as cell-based. The conditions noted are these: FIG. 20. The protocol: Sabouraud's liquid medium was inoculated with the chosen pathogen. The broths were then incubated for one week at 28° C. […] Monographed actives not already in a cream base were mixed with a respective cream base. […] Up to four different discs were placed on a plate. The plate was then incubated for 24-48 hours at the appropriate temperature depending on the pathogen. Photos were then taken at the completion of the 24-48 hours.

For `Clc1ccc(COC(Cn2ccnc2)c2ccc(Cl)cc2Cl)c(Cl)c1` (stereo not shown) [miconazole], the regrowth into clearance entry is recorded as “became encroached by regrowth”.
